From patent US7718170B2, “Alkaline phosphatase compositions to reduce skin cancer” (Essential Skincare, LLC, priority 2006, dated 2010)

How the values were obtained:
B16 mouse melanoma [1] = experiment: B16 mouse melanoma tumor growth (tumor volume by calipers); type: in vivo; conditions: for Tumor volumes; Day 8 after tumor transplantation: local cream 150 mg per application on days 8, 11, 13, 15, 18, 20, day 8 = start, mean of 5 animals
Source text: The B16 mouse melanoma tumors were developed in first generation hybrid BDF1 (C57 B1 female×DBA/2 male) adult female mice kept at specified pathogen free (SPF) hygienic level. These mice have the complete immune system. The human H-168 melanoma tumors were developed in the homozygous line of C.B.-171 cr scid/scid mice (with severely compromised immune deficiency) which is an inbred mutant strain. In each case, tumor tissue fragments of about 0.1-cm^3 were surgically implanted subcutaneously into the intrascapular region to develop the tumors. Each tumor fragment contained 1-1.5×10^6 cells. The animals were kept in macrolon cages on ventilated rack at 22-24° C. (50-60% humidity) with lighting regimen of 12/12 h light/dark. The animals had free access to tap water and were fed with sterilized standard diet (Charles River VRF1, Germany) ad libitum. The animals were taken care of according to the “Guiding Principle for the care and use of Animals” based upon the Helsinki declaration and they were approved by the local ethical committee.
The mice bearing the rapidly growing B16 melanoma tumors were used after 8-11 days of tumor transplantation, while mice bearing the slower growing H-168 melanoma were used after 17 days of transplantation. In either case, when the tumor-bearing mice were used, the size of the tumors was in the 0.3-0.6 cm^3 range; animals were selected so that in the same treatment group the difference in tumor size was no greater than 0.1 cm^3 PALP, TF, or AT were used topically in a cream alone or in combination; in each case, 150-mg cream was applied on the tumor and the vicinity of tumor area (with about 0.3-0.5 cm margin). The tumor volume was determined by using calipers; this technique is well known to one having ordinary skill in the art. Tumor volume was calculated according to the generally accepted formula: V=a^2×b×π/6, where “a” and “b” mean the shortest and longest diameter, respectively, of the measured tumor.
The aggressive B16 mouse melanoma model was developed as described under Example 3. On day 11 after transplantation of tumor cells, the animals were either remained untreated (Group 1) or were treated with 15 mg/kg highly purified PALP via subcutaneous administration (Group 2). In Group 3, the tumors were treated locally with 150-mg of cream containing 4 mg commercial PALP in 1 g of Vaselinum cholesteratum. In Group 4, the animals were treated simultaneously locally with commercial PALP containing cream and via subcutaneous injection with highly purified PALP. Each treatment was performed once daily for seven consecutive days (i.e., treatments were terminated on day 18). Locally administered PALP preparation, and to a somewhat smaller extent injected purified PALP, inhibited the growth of B16 melanoma. The inhibitory effects remained significant even on day 23, 5 days after the last treatment. When PALP preparations were simultaneously administered via both routes, the combined effects were greater than the individual effects. […] Alternatively, optimal effects could require the presence of all 3 proteins. Experiments presented later confirm that the inhibitory effects of purified PALP on melanoma growth are greater in the simultaneous presence of TF and AT.
The B16 mouse melanoma model was developed as described under Example 3. On day 8 after transplantation of tumor cells, the animals either remained untreated (Group 1) or in other animal groups the tumors were treated locally with creams (150 mg per application) containing active components as follows: Group 2, 0.4 mg of purified PALP per 1-g Vaseline; Group 3, 0.5 mg of purified partially iron-saturated TF per 1-g Vaseline; Group 4, 0.4 mg of PALP+0.5 mg TF per 1-g Vaseline; Group 5, 1.2 mg of purified AT per 1-g Vaseline; Group 6, 0.4 mg of PALP+0.5 mg TF+1.2 mg of purified AT per 1-g Vaseline; and Group 7, Vaselinum cholesteratum alone. Each treatment was performed once daily on days 8, 11, 13, 15, 18 and 20. […]

B16 mouse melanoma [2] = experiment: as above; type: in vivo; conditions: subcutaneous injection
fibroblast = experiment: Fibroblast proliferation in vitro after pre-heating of TF; type: cell-based; conditions: pre-heating at up to 75° C. for 30 min
Description: The stimulatory effects of TF on fibroblast proliferation in vitro are not altered by pre-heating it at up to 75° C. for 30 min. Thus, pre-heating of TF-containing compositions to enhance the effects of other components, such as PALP and AT will be unlikely to alter other effects of TF such as inhibition of melanoma growth.

B16 melanoma = experiment: Lung metastasis of B16 melanoma (macroscopic lung colonies); type: in vivo, mouse; conditions: treatments from day 11, daily, counted 21 days after starting the treatments, 7 animals, parentheses = smallest and highest numbers in the group
Description: B16 melanoma cells are highly metastatic that are known to preferably form metastatic colonies in the lung. The goal of this experiment was to determine if any of the components present in commercial PALP or the mode of application affect the metastatic process.
The B16 melanoma model described under Example 3 was used. The treatments of mice bearing the rapidly growing B16 melanoma were started 11 days after tumor transplantation; additional treatments were performed on each day for six consecutive days. In each experimental group seven animals were used. In the first group, animal tumors were treated locally with 200 mg Vaseline (control group). In the second group, animal tumors were locally treated with 200 mg Vaseline cream containing 4 mg commercial PALP per 1-g Vaseline. In the third group, animals were subcutaneously injected commercial PALP (1.5 mg per animal or 60 mg per kg). In the fourth group, animals were treated with commercial PALP both locally and subcutaneously. In the fifth group, animals were subcutaneously injected highly purified PALP (0.35 mg per animal or 14 mg per 1 kg). In the sixth group, animals were subcutaneously injected partially iron-saturated human TF (0.4 mg per animal or 16 mg per 1 kg). In the seventh group, animal tumors were locally treated with 200 mg Vaseline cream containing 1.0 mg human TF per 1 g Vaseline. In the last group, the tumors were untreated during the entire period of experiment. The macroscopic colonies were counted in the lung (7 animals in each group) 21 days after starting the treatments. The data are presented in TABLE 5; numbers in the parentheses indicate the smallest and highest numbers of metastatic lung colonies in the same group.

[3] = Organ pathology in mice after repeated injection; type: in vivo; conditions: 16 mg/kg injected 15-times over a 3 weeks period
[4] = subcutaneous injection, CCDTHT 4.6 mg/kg once daily day 11-22, mean of 5 mice
[5] = local cream 150 mg per application on days 8, 11, 13, 15, 18, 20, mean of 5 animals
[6] = BDF1 mice, 5 days after the last treatment, mean of 7 animals
[7] = BDF1 mice, day 11 = start of treatment, once daily for seven consecutive days, mean of 7 animals
[8] = BDF1 mice, treated once daily from day 11 for seven days, mean of 7 animals
[9] = BDF1 mice, treated once daily from day 11 for seven days, treatments terminated on day 18, mean of 7 animals
[10] = BDF1 mice, treatments terminated on day 18, mean of 7 animals

| Molecule | Tumor volumes; Day 8 after tumor transplantation (B16 mouse melanoma [1]) | Tumor volumes; Day 11 after tumor transplantation (B16 mouse melanoma [1]; [5]) | Tumor volumes; Day 13 after tumor transplantation (B16 mouse melanoma [1]; [5]) | Tumor volumes; Day 15 after tumor transplantation (B16 mouse melanoma [1]; [5]) | Tumor volumes; Day 18 after tumor transplantation (B16 mouse melanoma [1]; [5]) | Tumor volumes; Day 20 after tumor transplantation (B16 mouse melanoma [1]; [5]) | Tumor volumes; Day 23 after tumor transplantation (B16 mouse melanoma [1]; [6]) | Tumor volumes; Day 11 after tumor transplantation (B16 mouse melanoma [1]; [7]) | Tumor volumes; Day 14 after tumor transplantation (B16 mouse melanoma [1]; [8]) | Tumor volumes; Day 16 after tumor transplantation (B16 mouse melanoma [1]; [8]) | Tumor volumes; Day 18 after tumor transplantation (B16 mouse melanoma [1]; [9]) | Tumor volumes; Day 21 after tumor transplantation (B16 mouse melanoma [1]; [10]) | Number of lung colonies per lung* (B16 melanoma) | further results |
| --- | --- | --- | --- | --- | --- | --- | --- | --- | --- | --- | --- | --- | --- | --- |
| CC[N+](C)(CC)CCOCc1ccc2sc3ccccc3c(=O)c2c1.[I-] [CCDTHT, N,N-diethyl-N-methyl-2-[(9-oxo-9H-thioxanthen-2-yl)methoxy]-ethanaminium iodide] | – | – | – | – | – | – | – | – | – | – | – | – | – | Tumor volumes; Day 14 after tumor transplantation (B16 mouse melanoma [1]; [4]): 1.20 cm^3; Tumor volumes; Day 16 after tumor transplantation (B16 mouse melanoma [1]; [4]): 1.40 cm^3; Tumor volumes; Day 18 after tumor transplantation (B16 mouse melanoma [1]; [4]): 1.90 cm^3; Tumor volumes; Day 23 after tumor transplantation (B16 mouse melanoma [1]; [4]): 3.00 cm^3; Tumor volumes; Day 11 after tumor transplantation (B16 mouse melanoma [2]; CCDTHT 4.6 mg/kg once daily day 11-22, day 11 = start, mean of 5 mice): 0.83 cm^3; Tumor volumes; Day 21 after tumor transplantation (B16 mouse melanoma [2]; CCDTHT 4.6 mg/kg once daily day 11-22, mean of 5 mice): 2.60 cm^3 |
| AT: human α1-antitrypsin, essentially pure, purified from commercial PALP preparation | 0.42 cm^3 | 0.83 cm^3 | 1.60 cm^3 | 2.55 cm^3 | 3.48 cm^3 | 4.80 cm^3 | – | – | – | – | – | – | – | – |
| TF: human transferrin, partially iron-saturated, Sigma-Aldrich T 3309 | 0.34 cm^3 | 0.79 cm^3 | 1.38 cm^3 | 2.19 cm^3 | 3.07 cm^3 | 3.83 cm^3 | 3.88 cm^3 | 0.71 cm^3 | 1.00 cm^3 | 1.13 cm^3 | 2.00 cm^3 | 3.12 cm^3 | doubling | Stimulatory effects on fibroblast proliferation in vitro after pre-heating (fibroblast): not altered; Number of lung colonies per lung* (B16 melanoma; listed as TF, local applications): 17 (10-21); Number of lung colonies per lung* (B16 melanoma; listed as TF, subcutaneous applications): 38 (29-44) |
| Purified PALP: human placental alkaline phosphatase purified to homogeneity from commercial Sigma-Aldrich PALP; it is 'PALP' in Table 2, b31 and b104 (protein, UniProt P05187 23-506, looked up) Alkaline phosphatase, …: IIPVEEENPDFWNREAAEALGAAKKLQPAQTAAKNLIIFLGDGMGVSTVTAARILKGQKKDKLGPEIPLAMDRFPYVALSKTYNVDKHVPDSGATATAYLCGVKGNFQTIGLSAAARFNQCNTTRGNEVISVMNRAKKAGKSVGVVTTTRVQHASPAGTYAHTVNRNWYSDADVPASARQEGCQDIATQLISNMDIDVILGGGRKYMFRMGTPDPEYPDDYSQGGTRLDGKNLVQEWLAKRQGARYVWNRTELMQASLDPSVTHLMGLFEPGDMKYEIHRDSTLDPSLMEMTEAALRLLSRNPRGFFLFVEGGRIDHGHHESRAYRALTETIMFDDAIERAGQLTSEEDTLSLVTADHSHVFSFGGYPLRGSSIFGLAPGKARDRKAYTVLLYGNGPGYVLKDGARPDVTESESGSPEYRQQSAVPLDEETHAGEDVAVFARGPQAHLVHGVQEQTFIAHVMAFAACLEPYTACDLAPPAGTTD | – | – | – | – | – | – | 3.63 cm^3 | 0.75 cm^3 | 1.16 cm^3 | 1.55 cm^3 | 2.13 cm^3 | 3.47 cm^3 | 16 (9-18) | Pathological effects (cell death or immune cell infiltration) in liver, lung, heart, blood, kidney, muscle, brain, spleen, intestine [3]: has not caused any significant pathological effects |
